Molecular target: T1, PERK (Homo sapiens, UniProt Q9NZJ5)
T1 construct: GST-PERK (536-1116) cytoplasmic domain was purchased from Invitrogen; purchased Invitrogen PV5106
T1 sequence (Q9NZJ5 536-1116): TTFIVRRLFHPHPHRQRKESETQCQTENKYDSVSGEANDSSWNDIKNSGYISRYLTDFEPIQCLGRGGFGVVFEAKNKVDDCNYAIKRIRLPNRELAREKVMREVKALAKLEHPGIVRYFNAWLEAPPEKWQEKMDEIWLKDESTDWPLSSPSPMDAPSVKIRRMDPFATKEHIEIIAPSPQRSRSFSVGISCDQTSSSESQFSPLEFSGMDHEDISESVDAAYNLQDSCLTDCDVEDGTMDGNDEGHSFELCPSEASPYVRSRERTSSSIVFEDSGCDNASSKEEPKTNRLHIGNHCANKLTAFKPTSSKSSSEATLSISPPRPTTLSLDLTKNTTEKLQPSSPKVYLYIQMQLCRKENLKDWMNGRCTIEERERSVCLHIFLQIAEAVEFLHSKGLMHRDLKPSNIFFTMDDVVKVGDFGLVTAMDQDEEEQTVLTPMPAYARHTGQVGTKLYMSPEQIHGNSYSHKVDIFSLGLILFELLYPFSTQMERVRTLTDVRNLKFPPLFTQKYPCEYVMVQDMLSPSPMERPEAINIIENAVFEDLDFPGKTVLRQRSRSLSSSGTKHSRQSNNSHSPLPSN
Assay: PKR-like Endoplasmic Reticulum Kinase (PERK) Assay (HTRF Format)
Assay type: biochemical
Settings: average, in at least one set of experimental runs; read-out: average pIC50 value against PERK (converted)
Description: PKR-like Endoplasmic Reticulum Kinase (PERK) Assay (HTRF Format)
Source of substrate: elF2α: 6-His-Full-length human elF2α is purified from baculovirus expression in Sf9 insect cells. The elF2 protein is buffer exchanged by dialysis into PBS, chemically modified by NHS-LC-Biotin and then buffer exchanged by dialysis into 50 mm TRIS pH 7.2/250 mM NaCl/5 mM DTT. Protein is aliquoted and stored at −80° C.
Assays were performed by adding GST-PERK solution to assay plates containing compounds and pre-incubated for 30 minutes at room temperature. The reaction is initiated by the addition of ATP and EIF2α substrate solution. Quench solution is added following a one hour incubation at room temperature. The plates are covered for 2 hours at room temperature prior to determination of signal. The resulting signal is quantified on a Viewlux Reader (PerkinElmer). The APC Signal is normalized to the Europium signal by transforming the data through an APC/Eu calculation.
Compounds under analysis were dissolved in DMSO to 1.0 mM and serially diluted 1 to 3 with DMSO through eleven dilutions. 0.1 μl of each concentration was transferred to the corresponding well of an assay plate. This creates a final compound concentration range from 0.00017 to 10 μM.
The data for concentration response curves were plotted as % Inhibition calculated with the data reduction formula 100*(1−(U1−C2)/(C1−C2)) versus concentration of compound where U is the unknown value, C1 is the average control value obtained for 1% DMSO, and C2 is the average control value obtained for 0.1 M EDTA. Data were fitted with a curve described by:
where A is the minimum y, B is the maximum y concentration [M], D is the slope factor, and x is the log10 of the compound.
In the above data, pIC50 is defined as −log(IC50) where the IC50 value is expressed in molar units.

Row | Structure (SMILES) | IC50 [nM]
1 | Cn1cc(-c2ccc3c(c2)CCN3C(=O)Cc2ccccc2F)c2c(N)ncnc21 [Example 34, 5-{1-[(2-fluorophenyl)acetyl]-2,3-dihydro-1H-indol-5-yl}-7-methyl-7H-pyrrolo[2,3-d]pyrimidin-4-amine] | ≤ 0.316
2 | Nc1ncnc2c1c(-c1ccc3c(c1)CCN3C(=O)Cc1cccc(C(F)(F)F)c1)cn2CCN1CCOCC1 [Example 127, 7-[2-(4-morpholinyl)ethyl]-5-(1-{[3-(trifluoromethyl)phenyl]acetyl}-2,3-dihydro-1H-indol-5-yl)-7H-pyrrolo[2,3-d]pyrimidin-4-amine] | ≤ 0.316
3 | CN1CC(n2cc(-c3ccc4c(c3)CCN4C(=O)Cc3cccc(C(F)(F)F)c3)c3c(N)ncnc32)C1 [Example 133, 7-(1-methyl-3-azetidinyl)-5-(1-{[3-(trifluoromethyl)phenyl]acetyl}-2,3-dihydro-1H-indol-5-yl)-7H-pyrrolo[2,3-d]pyrimidin-4-amine] | ≤ 1
4 | Cn1cc(-c2ccc3c(c2F)CCN3C(=O)Cc2cc(F)ccc2F)c2c(N)ncnc21 [Example 114, 5-{1-[(2,5-difluorophenyl)acetyl]-4-fluoro-2,3-dihydro-1H-indol-5-yl}-7-methyl-7H-pyrrolo[2,3-d]pyrimidin-4-amine] | ≤ 0.316
5 | Cc1ccccc1CC(=O)N1CCc2cc(-c3cn(C)c4ncnc(N)c34)ccc21 [Example 33, 7-methyl-5-{1-[(2-methylphenyl)acetyl]-2,3-dihydro-1H-indol-5-yl}-7H-pyrrolo[2,3-d]pyrimidin-4-amine] | ≤ 0.316
6 | Nc1ncnc2scc(-c3ccc4c(c3)CCN4C(=O)Cc3cc(F)ccc3F)c12 [Example 31, 5-{1-[(2,5-difluorophenyl)acetyl]-2,3-dihydro-1H-indol-5-yl}thieno[2,3-d]pyrimidin-4-amine] | ≤ 1
7 | Cn1cc(-c2ccc3c(c2F)CCN3C(=O)Cc2cccc(C(F)(F)F)n2)c2c(N)ncnc21 [Example 137, 5-(4-fluoro-1-{[6-(trifluoromethyl)-2-pyridinyl]acetyl}-2,3-dihydro-1H-indol-5-yl)-7-methyl-7H-pyrrolo[2,3-d]pyrimidin-4-amine] | ≤ 1
8 | Nc1nccc2scc(-c3ccc4c(c3)CCN4C(=O)Cc3cccc(Cl)c3)c12 [Example 22, 3-{1-[(3-chlorophenyl)acetyl]-2,3-dihydro-1H-indol-5-yl}thieno[3,2-c]pyridin-4-amine] | ≤ 2.51
9 | Cc1cccc(CC(=O)N2CCc3cc(-c4cn(C)c5ncnc(N)c45)ccc32)c1 [Example 37, 7-methyl-5-{1-[(3-methylphenyl)acetyl]-2,3-dihydro-1H-indol-5-yl}-7H-pyrrolo[2,3-d]pyrimidin-4-amine] | ≤ 0.316
10 | Cc1cc(F)cc(CC(=O)N2CCc3cc(-c4cn(C)c5ncnc(N)c45)ccc32)c1 [Example 45, 5-{1-[(3-fluoro-5-methylphenyl)acetyl]-2,3-dihydro-1H-indol-5-yl}-7-methyl-7H-pyrrolo[2,3-d]pyrimidin-4-amine] | ≤ 0.316
11 | Nc1ncnc2c1c(-c1ccc3c(c1)CCN3C(=O)Cc1cc(F)ccc1F)cn2C1CNC1 [Example 144, 7-(3-azetidinyl)-5-{1-[(2,5-difluorophenyl)acetyl]-2,3-dihydro-1H-indol-5-yl}-7H-pyrrolo[2,3-d]pyrimidin-4-amine] | ≤ 0.316
12 | Cn1cc(-c2ccc3c(c2)CCN3C(=O)Cc2cc(F)cc(Cl)c2)c2c(N)ncnc21 [Example 53, 5-{1-[(3-chloro-5-fluorophenyl)acetyl]-2,3-dihydro-1H-indol-5-yl}-7-methyl-7H-pyrrolo[2,3-d]pyrimidin-4-amine] | ≤ 0.316
13 | Cc1cccc(CC(=O)N2CCc3cc(-c4cn(C)c5ncnc(N)c45)ccc32)n1 [Example 121, 7-methyl-5-{1-[(6-methyl-2-pyridinyl)acetyl]-2,3-dihydro-1H-indol-5-yl}-7H-pyrrolo[2,3-d]pyrimidin-4-amine] | ≤ 2.51
14 | Nc1ncc(-c2cn[nH]c2)c2scc(-c3ccc4c(c3)CCN4C(=O)Cc3ccccc3)c12 [Example 13, 3-[1-(phenylacetyl)-2,3-dihydro-1H-indol-5-yl]-7-(1H-pyrazol-4-yl)thieno[3,2-c]pyridin-4-amine] | ≤ 1
15 | Cn1cc(-c2ccc3c(c2)CCN3C(=O)Cc2ccc(F)cc2F)c2c(N)ncnc21 [Example 102, 5-{1-[(2,4-difluorophenyl)acetyl]-2,3-dihydro-1H-indol-5-yl}-7-methyl-7H-pyrrolo[2,3-d]pyrimidin-4-amine] | ≤ 2.51
16 | Cc1cccc(CC(=O)N2CCc3cc(-c4cn(C)c5ncnc(N)c45)ccc32)c1C [Example 81, 5-{1-[(2,3-dimethylphenyl)acetyl]-2,3-dihydro-1H-indol-5-yl}-7-methyl-7H-pyrrolo[2,3-d]pyrimidin-4-amine] | ≤ 1
17 | Cn1cc(-c2ccc3c(c2)CCN3C(=O)Cc2cc(F)cc(F)c2)c2c(N)ncnc21 [Example 89, 5-{1-[(3,5-difluorophenyl)acetyl]-2,3-dihydro-1H-indol-5-yl}-7-methyl-7H-pyrrolo[2,3-d]pyrimidin-4-amine] | ≤ 1
18 | Cc1cccc(CC(=O)N2CCc3cc(-c4cn(C)c5ncnc(N)c45)ccc32)c1F [Example 71, 5-{1-[(2-fluoro-3-methylphenyl)acetyl]-2,3-dihydro-1H-indol-5-yl}-7-methyl-7H-pyrrolo[2,3-d]pyrimidin-4-amine] | ≤ 0.316
19 | Cc1cccc(CC(=O)N2CCc3c2ccc(-c2cn(C)c4ncnc(N)c24)c3F)n1 [Example 136, 5-{4-fluoro-1-[(6-methyl-2-pyridinyl)acetyl]-2,3-dihydro-1H-indol-5-yl}-7-methyl-7H-pyrrolo[2,3-d]pyrimidin-4-amine] | ≤ 1
20 | Nc1ncnc2occ(-c3ccc4c(c3)CCN4C(=O)Cc3cc(F)cc(C(F)(F)F)c3)c12 [Example 119, 5-(1-{[3-fluoro-5-(trifluoromethyl)phenyl]acetyl}-2,3-dihydro-1H-indol-5-yl)furo[2,3-d]pyrimidin-4-amine] | ≤ 2.51
21 | Cc1cccc(CC(=O)N2CCc3cc(-c4cn(C5CNC5)c5ncnc(N)c45)ccc32)c1 [Example 92, 7-(3-azetidinyl)-5-{1-[(3-methylphenyl)acetyl]-2,3-dihydro-1H-indol-5-yl}-7H-pyrrolo[2,3-d]pyrimidin-4-amine] | ≤ 1
22 | Nc1ncc(C2=CCNCC2)c2scc(-c3ccc4c(c3)CCN4C(=O)Cc3ccccc3)c12 [Example 19, 3-[1-(phenylacetyl)-2,3-dihydro-1H-indol-5-yl]-7-(1,2,3,6-tetrahydro-4-pyridinyl)thieno[3,2-c]pyridin-4-amine] | ≤ 2.51
23 | Cn1nc(-c2ccc3c(c2)CCN3C(=O)Cc2cccc(Cl)c2)c2c(N)ncnc21 [Example 42, 3-{1-[(3-chlorophenyl)acetyl]-2,3-dihydro-1H-indol-5-yl}-1-methyl-1H-pyrazolo[3,4-d]pyrimidin-4-amine] | ≤ 2.51
24 | Cc1ccc(F)c(CC(=O)N2CCc3cc(-c4cn(C)c5ncnc(N)c45)ccc32)c1 [Example 73, 5-{1-[(2-fluoro-5-methylphenyl)acetyl]-2,3-dihydro-1H-indol-5-yl}-7-methyl-7H-pyrrolo[2,3-d]pyrimidin-4-amine] | ≤ 1
25 | Cn1nc(N)c2c(-c3ccc4c(c3)CCN4C(=O)Cc3cccc(C(F)(F)F)c3)cncc21 [Example 143, 1-methyl-4-(1-{[3-(trifluoromethyl)phenyl]acetyl}-2,3-dihydro-1H-indol-5-yl)-1H-pyrazolo[3,4-c]pyridin-3-amine] | ≤ 1
26 | Nc1nccc2scc(-c3ccc4c(c3)CCN4C(=O)Cc3cc(F)ccc3F)c12 [Example 6, 3-{1-[(2,5-difluorophenyl)acetyl]-2,3-dihydro-1H-indol-5-yl}thieno[3,2-c]pyridin-4-amine] | ≤ 2.51
